Results on 4 substances are retold here after paper PMC2765569 (Biochemistry, 2009).

Assay [1] has as its target FTase (wild-type protein farnesyltransferase) (Rattus norvegicus, UniProt Q02293+Q04631). Nature of the assay: Single-turnover. The format is biochemical. Conditions: 800 nM FTase, 200 nM FPP, 25 μM peptide, 5 μM MDCC-PBP, 34 units mL^−1 PPiase, 50 mM HEPPSO pH 7.8, 5 mM TCEP, 5 mM MgCl2, 25 °C; for Single turnover rate constant kSTO, X=S: dansyl-GCVa2S panel.
Assay [2] concerns the target FTase (Rattus norvegicus, UniProt Q02293+Q04631). Nature of the assay: Radioactive assay of FTase-catalyzed farnesylation. It counts as biochemical. Conditions: data not shown, farnesylated slowly.

Sequence of FTase (Q02293 whole entry, one chain of several): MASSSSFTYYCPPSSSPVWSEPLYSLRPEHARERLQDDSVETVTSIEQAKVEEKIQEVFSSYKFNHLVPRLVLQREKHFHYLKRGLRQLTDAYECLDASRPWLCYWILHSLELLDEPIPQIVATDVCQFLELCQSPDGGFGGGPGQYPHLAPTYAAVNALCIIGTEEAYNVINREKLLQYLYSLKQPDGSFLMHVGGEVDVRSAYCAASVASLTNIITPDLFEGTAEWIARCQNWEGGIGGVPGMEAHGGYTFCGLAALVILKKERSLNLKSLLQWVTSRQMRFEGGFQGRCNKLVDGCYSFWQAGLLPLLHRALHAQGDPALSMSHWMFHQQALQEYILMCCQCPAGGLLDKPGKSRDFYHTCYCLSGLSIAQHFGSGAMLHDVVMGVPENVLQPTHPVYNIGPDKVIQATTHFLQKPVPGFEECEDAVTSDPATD

Take dansyl-GCVGS: the “Single turnover rate constant kSTO, X=S” value in assay [1] stood at 0.092 ± 0.004 s⁻¹.
As for dansyl-GCVRS, the “apparent value for kcat/KM” value in assay [2] was under 1000 M⁻¹ s⁻¹.
Take dansyl-GCVLS: the “Single turnover rate constant kSTO, X=S” value in assay [1] is 3.8 ± 0.5 s⁻¹.
Take dansyl-GCVGM: in assay [1] (dansyl-GCVa2M panel), the “Single turnover rate constant kSTO, X=M” value was found to be 0.26 ± 0.01 s⁻¹.
